Numbers after ± are expanded uncertainties.
Test: refractive index (other wavelength) (dimensionless); xn = mol fraction of the nth substance listed
Settings: 318.15 K, 101 kPa, Liquid, Standard Abbe refractometry

CC(C)OC(C)C [diisopropyl ether] + CO
refractive index
Settings | Wavelength=486.1 nm | Wavelength=546.1 nm | Wavelength=587.6 nm | Wavelength=589.3 nm
x2 = 0 | – | 1.35556 ± 0.00044 | 1.35416 ± 0.00044 | 1.35411 ± 0.00044
x2 = 0.0423 | – | 1.35556 ± 0.00043 | 1.35414 ± 0.00043 | 1.35409 ± 0.00043
x2 = 0.0424 | – | 1.35551 ± 0.00043 | 1.3541 ± 0.00043 | 1.35405 ± 0.00043
x2 = 0.082 | – | 1.35551 ± 0.00042 | 1.35411 ± 0.00042 | 1.35406 ± 0.00042
x2 = 0.0822 | – | 1.35565 ± 0.00042 | 1.35423 ± 0.00042 | 1.35418 ± 0.00042
x2 = 0.1171 | – | 1.35556 ± 0.00041 | 1.35417 ± 0.00041 | 1.35412 ± 0.00041
x2 = 0.1271 | – | 1.35557 ± 0.00041 | 1.35415 ± 0.00041 | 1.3541 ± 0.00041
x2 = 0.1827 | 1.35814 ± 0.0004 | 1.35541 ± 0.0004 | 1.354 ± 0.0004 | 1.35395 ± 0.0004
x2 = 0.2162 | 1.35804 ± 0.0004 | 1.35526 ± 0.0004 | 1.35387 ± 0.0004 | 1.35382 ± 0.0004
x2 = 0.251 | 1.35753 ± 0.00039 | 1.35479 ± 0.00039 | 1.35338 ± 0.00039 | 1.35333 ± 0.00039
x2 = 0.3298 | 1.358 ± 0.00038 | 1.35528 ± 0.00038 | 1.35387 ± 0.00038 | 1.35292 ± 0.00038
x2 = 0.3577 | 1.35689 ± 0.00038 | 1.35419 ± 0.00038 | 1.35274 ± 0.00038 | 1.35269 ± 0.00038
x2 = 0.4497 | 1.35572 ± 0.00038 | 1.35303 ± 0.00038 | 1.35162 ± 0.00038 | 1.35157 ± 0.00038
x2 = 0.4525 | 1.35631 ± 0.00037 | 1.3537 ± 0.00038 | 1.35228 ± 0.00038 | 1.35223 ± 0.00038
x2 = 0.522 | 1.35398 ± 0.00035 | 1.35136 ± 0.00035 | 1.34995 ± 0.00035 | 1.34989 ± 0.00035
x2 = 0.5543 | 1.35305 ± 0.00035 | 1.35042 ± 0.00035 | 1.34905 ± 0.00035 | 1.349 ± 0.00035
x2 = 0.609 | 1.35085 ± 0.00034 | 1.34818 ± 0.00034 | 1.34684 ± 0.00034 | –
x2 = 0.6529 | 1.34936 ± 0.00034 | 1.34672 ± 0.00034 | 1.34534 ± 0.00034 | –
x2 = 0.7504 | 1.34529 ± 0.00034 | 1.34271 ± 0.00034 | 1.34138 ± 0.00034 | –
x2 = 0.804 | 1.33919 ± 0.00035 | 1.33675 ± 0.00035 | 1.33541 ± 0.00035 | –
x2 = 0.807 | 1.34094 ± 0.00035 | 1.33842 ± 0.00034 | 1.33709 ± 0.00034 | –
x2 = 0.8727 | 1.3379 ± 0.00033 | 1.33543 ± 0.00033 | 1.33411 ± 0.00033 | –
x2 = 0.9233 | 1.32983 ± 0.00033 | 1.32743 ± 0.00033 | 1.32614 ± 0.00032 | –
x2 = 0.9253 | 1.33151 ± 0.00032 | 1.32907 ± 0.00032 | 1.32777 ± 0.00032 | –
x2 = 0.9527 | 1.32842 ± 0.00032 | 1.32601 ± 0.00032 | 1.32474 ± 0.00032 | –
x2 = 0.9773 | 1.32541 ± 0.00032 | 1.32301 ± 0.00032 | 1.32177 ± 0.00032 | –
x2 = 0.989 | 1.3242 ± 0.00032 | 1.32177 ± 0.00032 | 1.32052 ± 0.00032 | –
x2 = 0.9964 | 1.32328 ± 0.00032 | 1.3209 ± 0.00032 | 1.31967 ± 0.00032 | –

Source: the NIST ThermoML archive (doi:10.1016/j.fluid.2014.09.014)
